The subject of assay [1] is Human breast cancer cell line T-47D. Nature of the assay: Caspase cascade activation assay (N-(Ac-DEVD)-N'-ethoxycarbonyl-R110 fluorogenic substrate) in T-47D cells. In kind it is cell-based. The settings on record: for Caspase activity (Ratio) T-47D: ratio of net RFU of test compound to control, 3 h substrate reading. The protocol:
(§1) Human breast cancer cell lines T-47D and ZR-75-1 were grown according to media component mixtures designated by American Type Culture Collection +10% FCS (Invitrogen Corporation), in a 5% CO2 −95% humidity incubator at 37° C. T-47D and ZR-75-1 cells were maintained at a cell density between 30 and 80% confluency at a cell density of 0.1 to 0.6×10^6 cells/mL. Cells were harvested at 600×g and resuspended at 0.65×10^6 cells/mL into appropriate media +10% FCS. An aliquot of 45 μl of cells was added to a well of a 96-well microtiter plate containing 5 μl of a 10% DMSO in RPMI-1640 media solution containing 0.16 to 10 μM of 3-cyano-7-methoxy-4-(3-bromo-4,5-dimethoxyphenyl)-2-oxo-2H-chromene (Example 1) or other test compound (0.016 to 1 μM final). An aliquot of 45 μl of cells was added to a well of a 96-well microtiter plate containing 5 μl of a 10% DMSO in RPMI-1640 media solution without test compound as the control sample. The samples were mixed by agitation and then incubated at 37° C. for 24 h in a 5% CO2 −95% humidity incubator. After incubation, the samples were removed from the incubator and 50 μl of a solution containing 20 μM of N-(Ac-DEVD)-N′-ethoxycarbonyl-R110 fluorogenic substrate (SEQ ID NO:1) (Cytovia, Inc.; WO99/18856), 20% sucrose (Sigma), 20 mM DTT (Sigma), 200 mM NaCl (Sigma), 40 mM Na PIPES buffer pH 7.2 (Sigma), and 500 μg/ml lysolecithin (Calbiochem) was added. The samples were mixed by agitation and incubated at room temperature. Using a fluorescent plate reader (Model 1420 Wallac Instruments), an initial reading (T=0) was made approximately 1-2 min after addition of the substrate solution, employing excitation at 485 nm and emission at 530 nm, to determine the background fluorescence of the control sample. After the 3 h incubation, the samples were read for fluorescence as above (T=3 h).
(§2) The Relative Fluorescence Unit values (RFU) were used to calculate the sample readings as follows: RFU(T=3 h)−Control RFU(T=0)=Net RFU(T=3 h)
(§3) The activity of caspase cascade activation was determined by the ratio of the net RFU value for 3-cyano-7-methoxy-4-(3-bromo-4,5-dimethoxy-phenyl)-2-oxo-2H-chromene, or other test compound, to that of control samples. The EC50 (nM) was determined by a sigmoidal dose-response calculation (Prism 2.0, GraphPad Software Inc.).

The test system of assay [2] is Human breast cancer cell line ZR-75-1. The assay is described as follows: Caspase cascade activation assay (N-(Ac-DEVD)-N'-ethoxycarbonyl-R110 fluorogenic substrate) in ZR-75-1 cells. In kind it is cell-based. Conditions: for EC50 / maximal fold induction: Homo sapiens; for Caspase activity (Ratio) ZR-75-1: ratio of net RFU of test compound to control, 3 h substrate reading; for maximal fold induction: ZR-75-1, 24 h, read-out: Max efficacy ZR751. How it is done:
as §1, §2, §3

Setting [3] is: Homo sapiens, T47D, caspase cascade activation potency, T-47D cells, 24 h incubation.
[4] abbreviates: caspase cascade activation potency, ZR-75-1 cells, 24 h incubation.
Setting [5] is: commercial fused-pyridine compounds, ZR751 cells.
The mark [6] stands for this setting: ZR-75-1, commercial fused-pyridine compounds, ZR751 cells.
[7] abbreviates: commercial fused-pyridine compounds, T47D cells.

A value given as a limit tells only on which side of the number the result lay.

Consider 13 compounds from patent US7235674B2, “Substituted coumarins and quinolines and analogs as activators of caspases and inducers of apoptosis and the use thereof” (Cytovia, Inc., priority 2001, dated 2007).

The term EC50 denotes the midpoint of the concentration-response curve. A higher EC50 goes with a less potent agent. Turning to `Cn1ccc2c3oc(=O)c(C#N)c(-c4cccc([N+](=O)[O-])c4)c3ccc21` [Example 38, 3-Cyano-7-methyl-4-(3-nitro-phenyl)-2-oxo-2H-pyrrolo[2,3-h]chromene], the EC50 in assay [1] (setting [3]) is more than 100 nM; in assay [2] (setting [4]), 22 nM. Moreover, the “Caspase activity (Ratio) T-47D” value in assay [1] (T-47D cells, 24 h incubation) was determined as 1.8. Besides, in assay [2] (ZR-75-1 cells, 24 h incubation), the “Caspase activity (Ratio) ZR-75-1” value worked out at 5.0.

In the case of `COc1cc(OC)cc(-c2c(C#N)c(=O)oc3c2ccc2c3ccn2C)c1` [Example 39, 3-Cyano-4-(3,5-dimethoxy-phenyl)-7-methyl-2-oxo-2H-pyrrolo[2,3-h]chromene], the EC50 in assay [1] (setting [3]) is more than 100 nM; in assay [2] (setting [4]), 20 nM. Besides, the “Caspase activity (Ratio) T-47D” value in assay [1] (T-47D cells, 24 h incubation) was determined as 1.9. Besides, the “Caspase activity (Ratio) ZR-75-1” value in assay [2] (ZR-75-1 cells, 24 h incubation) is 5.2.

Regarding `COc1cc(-c2c(C#N)c(=O)oc3c2ccc2c3ccn2C)cc2c1OCO2` [Example 40, 3-Cyano-4-(3-methoxy-4,5-methylenedioxyphenyl)-7-methyl-2-oxo-2H-pyrrolo[2,3-h]chromene], the EC50 in assay [1] (setting [3]) was more than 100 nM; in assay [2] (setting [4]), 24 nM. Besides, the “Caspase activity (Ratio) T-47D” value in assay [1] (T-47D cells, 24 h incubation) was found to be 1.7. In addition, the “Caspase activity (Ratio) ZR-75-1” value in assay [2] (ZR-75-1 cells, 24 h incubation) is given as 4.9.

Take `COc1cccc(-c2c(C#N)c(=O)oc3c2ccc2c3ccn2C)c1` [Example 41, 3-Cyano-4-(3-methoxy-phenyl)-7-methyl-2-oxo-2H-pyrrolo[2,3-h]chromene]: the EC50 in assay [1] (setting [3]) is 55 nM; in assay [2] (setting [4]), 22 nM. In assay [1] (T-47D cells, 24 h incubation), the “Caspase activity (Ratio) T-47D” value was found to be 2.3. For the same compound, the “Caspase activity (Ratio) ZR-75-1” value in assay [2] (ZR-75-1 cells, 24 h incubation) was 4.9.

Regarding `Cn1ccc2c3oc(=O)c(C#N)c(-c4cccc(Br)c4)c3ccc21` [Example 42, 3-Cyano-4-(3-bromo-phenyl)-7-methyl-2-oxo-2H-pyrrolo[2,3-h]chromene], the values for the EC50 in assay [1] (setting [3]) and in assay [2] (setting [4]) were 56 nM and 17 nM, respectively. Moreover, the “Caspase activity (Ratio) T-47D” value in assay [1] (T-47D cells, 24 h incubation) was 2.6. The “Caspase activity (Ratio) ZR-75-1” value in assay [2] (ZR-75-1 cells, 24 h incubation) is 4.2.

Turning to `COc1ccccc1-c1c(C#N)c(N)nc2c1CCc1ccccc1-2` [compound 44], the maximal fold induction in assay [1] (Homo sapiens, 24 h, commercial fused-pyridine compounds, T47D cells, read-out: Max efficacy T47D) was found to be 10.7; in assay [2] (setting [5]), 19.2. In addition, the half-maximal effective concentration (EC50) in assay [1] (Homo sapiens, commercial fused-pyridine compounds, T47D cells) came to 3120 nM; in assay [2] (setting [6]) it was 2040 nM.

As to `COc1ccc(-c2c(C#N)c(N)nc3c2CCc2ccccc2-3)cc1OC` [compound 45], in assay [1] (setting [7]), the “EC50 (nM) T47D” value is reported as “Inactive” and the “Max efficacy T47D” value was “Inactive”. Further, the maximal fold induction in assay [2] (setting [5]) stood at 7. The EC50 in assay [2] (setting [6]) was 571 nM.

For `N#Cc1c(N)nc2c(c1-c1cccs1)CCCC2` [compound 46], in assay [1] (setting [7]), the “EC50 (nM) T47D” value is recorded as “Inactive” and the “Max efficacy T47D” value is recorded as “Inactive”. In assay [2] (setting [5]), the maximal fold induction worked out at 3.1. In assay [2] (setting [6]), the EC50 came out at 3410 nM.

For the compound `N#Cc1c(N)nc2sc(C(N)=O)c(N)c2c1-c1ccc(Br)cc1` [compound 47], in assay [1] (setting [7]), the “EC50 (nM) T47D” value is “Inactive” and the “Max efficacy T47D” value is given as “Inactive”. Further, the maximal fold induction in assay [2] (setting [5]) stood at 2.7. The compound also had an EC50 in assay [2] (setting [6]) of 6110 nM.

On to `C=CCNc1nc2nc(N)c(C#N)c(-c3ccc(Br)cc3)c2s1` [compound 48], for which, in assay [1] (setting [7]), the “EC50 (nM) T47D” value is on record as “Inactive” and the “Max efficacy T47D” value is listed as “Inactive”. Further, the maximal fold induction in assay [2] (setting [5]) worked out at 2.9. Further, the response in assay [2] (setting [6]) was half-maximal at 6040 nM (EC50).

Turning to `COc1ccc(-c2c(C#N)c(N)nc3c2CCCC3C)cc1` (stereo not shown) [compound 49], in assay [1] (setting [7]), the “EC50 (nM) T47D” value was “Inactive” and the “Max efficacy T47D” value is on record as “Inactive”. Also, the maximal fold induction in assay [2] (setting [5]) amounted to 4.8. For the same compound, it took 5710 nM to reach a half-maximal effect in assay [2] (setting [6]) (EC50).

For the compound `COc1ccc(-c2c(C#N)c(N)nc3c2CN(C)CC3)cc1OC` [compound 50], in assay [1] (setting [7]), the “EC50 (nM) T47D” value is reported as “Inactive” and the “Max efficacy T47D” value is on record as “Inactive”. In assay [2] (setting [5]), the maximal fold induction was 2.4. In assay [2] (setting [6]), this compound came in with an EC50 of 576 nM.

Regarding `N#Cc1c(N)nc2[nH]c(=S)[nH]c(=O)c2c1-c1ccc(Cl)cc1` [compound 51], in assay [1] (setting [7]), the “EC50 (nM) T47D” value is recorded as “Inactive” and the “Max efficacy T47D” value was “Inactive”. The maximal fold induction in assay [2] (setting [5]) came to 2.8. This compound yielded an EC50 in assay [2] (setting [6]) of 5380 nM.
